This is an account of results in US20200390729A1, “OPHTHALMIC TOPICAL COMPOSITION COMPRISING DOBESILIC ACID FOR TREATING DISEASES OF THE POSTERIOR SEGMENT OF THE EYE” (LABORATORIOS SALVAT, S.A., priority 2017, published 2020).

Molecules are shown by their SMILES.

The data set has as its system egg chorioallantoic membrane (CAM). Kind of data set: Ocular irritation assay (HET-CAM). Particulars: 100 mg/ml, CAM observed for 5 minutes. More on the design: species or system White Leghorn chicken eggs. The source says:
The HET-CAM is an alternative method to the Draize Rabbit Eye Test which mimics vascular changes in the chorioallantoic membrane, an analog for ocular conjunctiva, which can be used to determine the potential irritancy of a test substance. This method is based on that described in Hen's Egg Test-Chorioallantoic Membrane (HET-CAM) Test Method (ICCVAM-Recommended Test Method Protocol, NIH Publication No. 10-7553—Published 2010)
Fertilized white SPF (special pathogen free) White Leghorn chicken eggs were incubated at 37° C. and 60% humidity up to day 10. After determination of the viability of the embryo, a rectangular window was removed from the shell directly over the air cell and the egg membrane was carefully moistened with 2-3 ml 0.9% saline. After returning to the incubator for 30 minutes, the inner membrane was removed and the test substance was applied to the CAM membrane with a pipette. Eggs were observed continuously for 5 minutes for the appearance of lysis, hemorrhage and/or coagulation and an irritation score (IS) was determined following the ICCVAM-Recommended Test Method Protocol (NIH Publication No. 10-7553-Published 2010) guideline.

Regarding `CCNCC.O=S(=O)(O)c1cc(O)ccc1O` [etamsylate, diethylamine 2,5-dihydroxybenzenesulfonate], the HET-CAM irritation characterization result is listed as “not irritating” and the “HET-CAM lysis, haemorrhage or coagulation processes” value was “did not trigger any lysis, haemorrhage or coagulation processes”.
Take `O=S(=O)([O-])c1cc(O)ccc1O.[K+]` [potassium dobesilate]: the HET-CAM irritation characterization result is given as “not irritating” and the “HET-CAM lysis, haemorrhage or coagulation processes” value is recorded as “did not trigger any lysis, haemorrhage or coagulation processes”.
